Activity calls are given as the source filed them. No cut-off for these calls is given here.
Columns and labels:
[1] = molecular target: NACHT, LRR and PYD domains-containing protein 3 (Mus musculus, UniProt Q8R4B8); test: Inhibition of NLRP3 in mouse J774.A1 cells assessed as reduction IL-1beta release by ELISA; assay type: cell-based
[2] = molecular target: NACHT, LRR and PYD domains-containing protein 3 (Mus musculus) (UniProt Q8R4B8); test: Inhibition of NLRP3 inflammasome activation in LPS/nigericin-primed mouse BMDM cells assessed as inhibition of ASC speck formation incubated for 1 hr by DAPI staining based immunofluorescence analysis; assay type: cell-based
[3] = molecular target: T1, Apoptosis-associated speck-like protein containing a CARD (Mus musculus) (UniProt Q9EPB4); test: Inhibition of LPS/nigericin-induced ASC oligomerization in mouse J774.A1 cells at 0.8 to 3.2 uM by immunoblot analysis; assay type: cell-based; conditions: dose 0.8-3.2 µM
T1 sequence (whole entry): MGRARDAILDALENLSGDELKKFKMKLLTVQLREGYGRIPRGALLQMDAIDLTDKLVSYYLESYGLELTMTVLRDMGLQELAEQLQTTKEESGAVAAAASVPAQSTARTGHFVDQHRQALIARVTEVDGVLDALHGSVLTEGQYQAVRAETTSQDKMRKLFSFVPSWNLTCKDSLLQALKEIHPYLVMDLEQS

[4] = molecular target: NACHT, LRR and PYD domains-containing protein 3 (Mus musculus) (UniProt Q8R4B8); test: Inhibition of LPS/nigericin-induced NLRP3 oligomerization in mouse J774.A1 cells at 3.2 uM by SDS-PAGE analysis; assay type: cell-based
J774.A1 [5] = test: Cytotoxicity against mouse J774.A1 cells at 0.4 to 6.4 uM incubated for 24 hrs by CCK-8 assay; assay type: toxicity, cell-based; conditions: j774.a1, 24 h, dose 0.4-6.4 µM
[6] = molecular target: NLRP3-NEK7 (Mus musculus) (UniProt Q8R4B8+Q9ES74); test: Inhibition of NLRP3/NEK7 protein-protein interaction in LPS/nigericin-induced mouse J774.A1 cells incubated for 6 hrs by coimmunoprecipitation analysis; assay type: cell-based
[7] = molecular target: Nlrp3/Pycard (Mus musculus) (UniProt Q8R4B8+Q9EPB4); test: Inhibition of NLRP3/ASC protein-protein interaction in LPS/nigericin-induced mouse J774.A1 cells at 3 uM by coimmunoprecipitation analysis; assay type: cell-based
J774.A1 [8] = test: Effect on phosphorylated p65 level in LPS-induced mouse J774.A1 cells at 0.2 to 3.2 uM pre-incubated with compound for 2 hrs followed by LPS-induction and measured after 5 hrs by Western blot analysis; assay type: functional, cell-based; conditions: dose 0.2-3.2 µM, time 7.0 hrs
J774.A1 [9] = test: Effect on p65 level in LPS-induced mouse J774.A1 cells at 0.2 to 3.2 uM pre-incubated with compound for 2 hrs followed by LPS-induction and measured after 5 hrs by Western blot analysis; assay type: functional, cell-based; conditions: dose 0.2-3.2 µM, time 7.0 hrs
[10] = molecular target: NACHT, LRR and PYD domains-containing protein 3 (Mus musculus) (UniProt Q8R4B8); test: Inhibition of NLRP3 inflammasome activation in LPS/nigericin-induced mouse J774.A1 cells assessed as reduction in IL-1beta release by ELISA; assay type: cell-based; conditions: dose 0.125-4 µM
Mus musculus [11] = test: Antiinflammatory activity against DSS-induced ulcerative colitis male C57BL/6 mouse model assessed as increase in colon length at 7.5 to 30 mg/kg administered via oral gavage for 4 days; assay type: functional, organism-based; conditions: dose 7.5-30 mg/kg, time 4.0 day
J774.A1 [12] = test: Effect on TNF-alpha secretion in LPS-induced mouse J774.A1 cells at 0.2 to 3.2 uM pre-incubated with compound for 2 hrs followed by LPS-induction and measured after 5 hrs by ELISA; assay type: functional, cell-based; conditions: dose 0.2-3.2 µM, time 7.0 hrs
[13] = molecular target: NACHT, LRR and PYD domains-containing protein 3 (Mus musculus) (UniProt Q8R4B8); test: Inhibition of NLRP3 inflammasome activation in LPS/nigericin-induced mouse J774.A1 cells assessed as reduction in LDH level […]; assay type: cell-based; conditions: dose 0.2-3.2 µM
Mus musculus [14] = test: Antiinflammatory activity against DSS-induced ulcerative colitis male C57BL/6 mouse model assessed as reduction in cleaved GSDMD level in colonic tissue at 7.5 to 30 mg/kg administered via oral gavage for 4 days by Western blot analysis; assay type: functional, organism-based; conditions: dose 7.5-30 mg/kg, time 4.0 day
[15] = molecular target: NACHT, LRR and PYD domains-containing protein 3 (Mus musculus) (UniProt Q8R4B8); test: Inhibition of NLRP3 inflammasome activation in LPS/nigericin-induced mouse J774.A1 cells assessed as inhibition of mature IL-1beta release at 0.2 to 3.2 uM by Western blot analysis; assay type: cell-based; conditions: dose 0.2-3.2 µM
Mus musculus [16] = test: Effect on DSS-induced body weight loss in male C57BL/6 mouse model of ulcerative colitis at 7.5 to 30 mg/kg administered via oral gavage for 4 days; assay type: functional, organism-based; conditions: dose 7.5-30 mg/kg, time 4.0 day
Mus musculus [17] = test: Antiinflammatory activity against DSS-induced ulcerative colitis male C57BL/6 mouse model assessed as amelioration of mucosal ulceration in colonic tissue at 7.5 to 30 mg/kg administered via oral gavage for 4 days; assay type: functional, organism-based; conditions: dose 7.5-30 mg/kg, time 4.0 day
Mus musculus [18] = test: Antiinflammatory activity against DSS-induced ulcerative colitis male C57BL/6 mouse model assessed as reduction in caspase-1 level in colonic tissue at 7.5 to 30 mg/kg administered via oral gavage for 4 days by Western blot analysis; assay type: functional, organism-based; conditions: dose 7.5-30 mg/kg, time 4.0 day
[19] = molecular target: NACHT, LRR and PYD domains-containing protein 3 (Mus musculus) (UniProt Q8R4B8); test: Inhibition of NLRP3 inflammasome activation in LPS/nigericin-induced mouse J774.A1 cells assessed as inhibition of GSDMD cleavage at 0.2 to 3.2 uM by Western blot analysis; assay type: cell-based; conditions: dose 0.2-3.2 µM
[20] = molecular target: NACHT, LRR and PYD domains-containing protein 3 (Mus musculus) (UniProt Q8R4B8); test: Inhibition of NLRP3 inflammasome activation in LPS/nigericin-induced mouse BMDM cells assessed as reduction in IL-1beta release by ELISA; assay type: cell-based; conditions: dose 0.125-4 µM
J774.A1 [21] = test: Inhibition of NFkappaB signaling pathway in LPS-induced mouse J774.A1 cells assessed as reduction in IkappaBalpha phosphorylation at 3.2 uM pre-incubated with compound for 2 hrs followed by LPS-induction and measured after 5 hrs by Western blot analysis; assay type: cell-based; conditions: time 7.0 hrs
Mus musculus [22] = test: Antiinflammatory activity against DSS-induced ulcerative colitis male C57BL/6 mouse model assessed as amelioration of crypt loss in colonic tissue at 7.5 to 30 mg/kg administered via oral gavage for 4 days; assay type: functional, organism-based; conditions: dose 7.5-30 mg/kg, time 4.0 day
Mus musculus [23] = test: Antiinflammatory activity against DSS-induced ulcerative colitis male C57BL/6 mouse model assessed as amelioration of epithelial damage in colonic tissue at 7.5 to 30 mg/kg administered via oral gavage for 4 days; assay type: functional, organism-based; conditions: dose 7.5-30 mg/kg, time 4.0 day
HEK-293T = test: Cytotoxicity against HEK293T cells at 0.4 to 6.4 uM incubated for 24 hrs by CCK-8 assay; assay type: toxicity, cell-based; conditions: human, dose 0.4-6.4 µM
[24] = molecular target: NACHT, LRR and PYD domains-containing protein 3 (Mus musculus) (UniProt Q8R4B8); test: Inhibition of NLRP3 inflammasome activation in LPS/nigericin-induced mouse J774.A1 cells assessed as inhibition of caspase-1 p20 subunit formation at 0.2 to 3.2 uM by Western blot analysis; assay type: cell-based; conditions: dose 0.2-3.2 µM
Mus musculus [25] = test: Antiinflammatory activity against DSS-induced ulcerative colitis male C57BL/6 mouse model assessed as reduction in IL-1beta level in colonic tissue at 7.5 to 30 mg/kg administered via oral gavage for 4 days by ELISA; assay type: functional, organism-based; conditions: dose 7.5-30 mg/kg, time 4.0 day
Mus musculus [26] = test: Antiinflammatory activity against DSS-induced ulcerative colitis male C57BL/6 mouse model assessed as reduction in fecal blood index at 7.5 to 30 mg/kg administered via oral gavage for 4 days; assay type: functional, organism-based; conditions: dose 7.5-30 mg/kg, time 4.0 day
Mus musculus [27] = test: In vivo inhibition of NLRP3 in colonic tissue of DSS-induced ulcerative colitis male C57BL/6 mouse model at 7.5 to 30 mg/kg administered via oral gavage for 4 days by Western blot analysis; assay type: functional, organism-based; conditions: dose 7.5-30 mg/kg, time 4.0 day

NACHT, LRR and PYD domains-containing protein 3 (Mus musculus), sequence (Q8R4B8 whole entry, the tested form may be a part): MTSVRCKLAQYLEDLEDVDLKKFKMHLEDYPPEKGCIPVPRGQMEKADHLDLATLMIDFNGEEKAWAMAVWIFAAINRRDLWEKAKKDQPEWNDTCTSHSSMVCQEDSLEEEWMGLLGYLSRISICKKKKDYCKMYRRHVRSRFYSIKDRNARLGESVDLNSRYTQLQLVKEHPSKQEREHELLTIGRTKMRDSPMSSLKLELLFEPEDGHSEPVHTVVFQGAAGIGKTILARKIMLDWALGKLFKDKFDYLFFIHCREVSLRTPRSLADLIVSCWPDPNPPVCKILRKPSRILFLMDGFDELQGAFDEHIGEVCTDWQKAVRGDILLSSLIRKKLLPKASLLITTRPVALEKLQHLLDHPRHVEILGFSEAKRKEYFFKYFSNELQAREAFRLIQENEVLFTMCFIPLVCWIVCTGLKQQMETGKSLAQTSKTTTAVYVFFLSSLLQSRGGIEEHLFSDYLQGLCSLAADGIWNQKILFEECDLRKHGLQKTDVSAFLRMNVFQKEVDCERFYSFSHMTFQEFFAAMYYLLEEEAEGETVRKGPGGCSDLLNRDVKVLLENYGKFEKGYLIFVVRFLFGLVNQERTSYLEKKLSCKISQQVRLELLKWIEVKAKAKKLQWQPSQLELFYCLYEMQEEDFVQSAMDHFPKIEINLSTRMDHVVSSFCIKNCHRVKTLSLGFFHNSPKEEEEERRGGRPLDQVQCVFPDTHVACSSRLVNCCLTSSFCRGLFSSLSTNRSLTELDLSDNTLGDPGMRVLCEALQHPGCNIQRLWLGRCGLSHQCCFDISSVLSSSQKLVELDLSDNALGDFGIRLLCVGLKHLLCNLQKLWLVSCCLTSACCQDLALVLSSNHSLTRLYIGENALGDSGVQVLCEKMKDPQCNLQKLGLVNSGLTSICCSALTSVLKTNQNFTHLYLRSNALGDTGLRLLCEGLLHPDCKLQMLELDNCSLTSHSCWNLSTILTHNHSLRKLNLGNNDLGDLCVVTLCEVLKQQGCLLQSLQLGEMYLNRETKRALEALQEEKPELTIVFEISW
NACHT, LRR and PYD domains-containing protein 3, sequence (Q8R4B8 whole entry, the tested form may be a part): as above
NLRP3-NEK7 (Mus musculus), sequence (Q8R4B8 whole entry, looked up): as the sequence (Q8R4B8 whole entry, the tested form may be a part) above
NLRP3-NEK7 (Mus musculus), sequence (Q9ES74 whole entry, looked up): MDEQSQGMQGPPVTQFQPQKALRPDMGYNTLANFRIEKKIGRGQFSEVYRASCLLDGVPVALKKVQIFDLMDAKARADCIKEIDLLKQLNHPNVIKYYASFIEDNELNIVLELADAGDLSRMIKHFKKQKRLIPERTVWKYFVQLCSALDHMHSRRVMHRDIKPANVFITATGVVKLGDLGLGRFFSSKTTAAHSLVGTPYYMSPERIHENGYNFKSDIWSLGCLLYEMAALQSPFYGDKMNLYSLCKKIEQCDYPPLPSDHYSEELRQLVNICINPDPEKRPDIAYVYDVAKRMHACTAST
Nlrp3/Pycard (Mus musculus), sequence (Q8R4B8 whole entry, looked up, one chain of several): as the sequence (Q8R4B8 whole entry, the tested form may be a part) above

O=C(NC1CC(F)(F)C1)c1cc(-c2ccccc2)nc2ccccc12
IC50 [1]: 5800 nM

CC[C@H](NC(=O)c1c(C)c(-c2cccc(F)c2)nc2ccc(Br)cc12)c1ccccc1
IC50 [1]: 1210 nM

CC[C@H](NC(=O)c1cc(Cl)nc2ccccc12)c1ccccc1
IC50 [1]: 84700 nM

CC[C@H](NC(=O)c1c(C)c(-c2cccc(F)c2)nc2c(Cl)cccc12)c1ccccc1
IC50 [1]: 710 nM

CC[C@@H](NC(=O)c1cc(-c2ccccc2)nc2ccccc12)c1ccccc1
IC50 [1]: 2080 nM

CC[C@H](NC(=O)c1cc(-c2cccc(F)c2)nc2ccccc12)c1ccccc1
IC50 [1]: 2820 nM

CC[C@H](NC(=O)c1c(C)c(-c2cccc(F)c2)nc2cc(OC)ccc12)c1ccccc1
IC50 [1]: 1200 nM

Cc1ccccc1NC(=O)c1cc(-c2ccccc2)nc2ccccc12
IC50 [1]: 13800 nM

CC[C@H](NC(=O)c1c(C)c(-c2cccc(F)c2)nc2ccccc12)c1ccccc1
inhibition [2]: Active | inhibition [3]: Active | inhibition [4]: Active | Activity (J774.A1 [5]): Non-toxic | inhibition [6]: inactive | IC50 [1]: 590 nM | inhibition [7]: Active

CC[C@H](NC(=O)c1c(C)c(-c2cccc(F)c2)nc2c(NS(=O)(=O)C3CC3)cccc12)c1ccccc1
IC50 [1]: 420 nM

CC[C@H](NC(=O)c1ccnc2ccccc12)c1ccccc1
IC50 [1]: 126000 nM

CC[C@H](NC(=O)c1c(C)c(-c2cccc(F)c2)nc2ccc(Cl)cc12)c1ccccc1
IC50 [1]: 810 nM

CC[C@H](NC(=O)c1c(C)c(-c2cccc(F)c2)nc2ccc(OC)cc12)c1ccccc1
IC50 [1]: 1040 nM

CC[C@H](NC(=O)c1c(C)c(-c2ccc(C(F)(F)F)cc2)nc2ccccc12)c1ccccc1
IC50 [1]: 2750 nM

CCN(CC)CCCC(C)Nc1ccnc2cc(Cl)ccc12 (stereo unspecified) [CHLOROQUINE]
IC50 [1]: 87900 nM

CC[C@H](NC(=O)c1cc(-c2ccccc2)nc2ccccc12)c1ccccc1 [AZD-7624]
IC50 [1]: 1300 nM

CC[C@H](NC(=O)c1c(C)c(-c2cccc(F)c2)nc2ccc([N+](=O)[O-])cc12)c1ccccc1
IC50 [1]: 940 nM

O=C(Nc1ccccc1)c1cc(-c2ccccc2)nc2ccccc12
IC50 [1]: 2070 nM

O=C(Nc1ccccc1OCc1ccccc1)c1cc(-c2ccccc2)nc2ccccc12
IC50 [1]: 77000 nM

CC[C@H](NC(=O)c1c(C)c(-c2ccc(F)cc2)nc2ccccc12)c1ccccc1
IC50 [1]: 1120 nM

CC[C@H](NC(=O)c1c(C)c(-c2cccc(F)c2)nc2cc(Cl)ccc12)c1ccccc1
IC50 [1]: 920 nM

O=C(N[C@H]1CCc2ccccc21)c1cc(-c2ccccc2)nc2ccccc12
IC50 [1]: 4510 nM

CC[C@H](NC(=O)c1c(C)c(-c2cccc(F)c2)nc2c(NC(C)=O)cccc12)c1ccccc1
IC50 [1]: 720 nM

CC[C@H](NC(=O)c1c(C)c(-c2cccc(F)c2)nc2ccc(F)cc12)c1ccccc1
IC50 [1]: 1360 nM

CC[C@H](NC(=O)c1c(C)c(-c2cccc(F)c2)nc2cc(Br)ccc12)c1ccccc1
IC50 [1]: 920 nM

CCC(C)NC(=O)c1cc(-c2ccccc2)nc2ccccc12 (stereo unspecified)
IC50 [1]: 39500 nM

CC[C@H](NC(=O)c1c(C)c(-c2cccc(Cl)c2)nc2ccccc12)c1ccccc1
IC50 [1]: 890 nM

Cc1ccc(O)cc1NC(=O)c1cc(-c2ccccc2)nc2ccccc12
IC50 [1]: 7070 nM

CC[C@H](NC(=O)c1c(C)c(-c2cccc(F)c2)nc2c([N+](=O)[O-])cccc12)c1ccccc1
Activity (J774.A1 [8]): No effect | inhibition [2]: Active | Activity (J774.A1 [9]): No effect | inhibition [3]: Active | inhibition [10]: Dose-dependent-effect | Activity (Mus musculus [11]): Active | Activity (J774.A1 [12]): No effect | inhibition [13]: Dose-dependent-effect | Activity (Mus musculus [14]): Active | inhibition [15]: Active | Activity (Mus musculus [16]): No effect | Activity (Mus musculus [17]): Active | Activity (Mus musculus [18]): Active | inhibition [19]: Active | inhibition [4]: Active | Activity (J774.A1 [5]): Non-toxic | inhibition [20]: Dose-dependent-effect | inhibition (J774.A1 [21]): Active; Slight Inhibitory Effect On P-Ikappabalpha | inhibition [6]: inactive | Activity (Mus musculus [22]): Active | Activity (Mus musculus [23]): Active | Activity (HEK-293T): Non-toxic | IC50 [1]: 180 nM | inhibition [24]: Active | inhibition [7]: Active | Activity (Mus musculus [25]): Active | Activity (Mus musculus [26]): Active | inhibition (Mus musculus [27]): Active

CC[C@H](NC(=O)c1c(C)c(-c2cccc(F)c2)nc2c(OC)cccc12)c1ccccc1
IC50 [1]: 1060 nM

O=C(N[C@@H]1CCc2ccccc21)c1cc(-c2ccccc2)nc2ccccc12
IC50 [1]: 7950 nM

CCN(CC)CCCC(C)NC(=O)c1cc(-c2ccccc2)nc2ccccc12 (stereo unspecified)
IC50 [1]: 11400 nM

COC(=O)[C@@H](NC(=O)c1cc(-c2ccccc2)nc2ccccc12)c1ccccc1
IC50 [1]: 3000 nM

CC[C@H](NC(=O)c1c(C)c(-c2ccccc2)nc2ccccc12)c1ccccc1 [SB-222200]
IC50 [1]: 1270 nM

CC[C@H](NC(=O)c1cc(C)nc2ccccc12)c1ccccc1
IC50 [1]: 85000 nM

O=C(NCCc1ccccc1)c1cc(-c2ccccc2)nc2ccccc12
IC50 [1]: 70400 nM

Cc1ccccc1CNC(=O)c1cc(-c2ccccc2)nc2ccccc12
IC50 [1]: 4310 nM

CSc1ccccc1NC(=O)c1cc(-c2ccccc2)nc2ccccc12
IC50 [1]: 3080 nM

— ChEMBL document CHEMBL6134828, “Discovery, synthesis, and biological mechanism evaluation of novel quinoline derivatives as potent NLRP3 inhibitors” (Eur J Med Chem, 2025)
